Four molecules from patent publication US6750224B1, “Antibacterial optically pure benzoquinolizine carboxylic acids, processes, compositions and methods of treatment” (priority 1999, dated 2004) can be followed below.

Series [1] can be described thus: Phlebitis on repeated i.v. administration in rats. Type of series: in vivo. The conditions noted are these: doses double those of the sodium salt. The source says:
This feature would make S-(−)-9-fluoro-6,7-dihydro-8-(4-hydroxypiperidin-1-yl)-5-methyl-1-oxo-1H,5H- benzo[i,j]quinolizine-2-carboxylic acid arginine salt 0.25 H2O and S-(−)-9-fluoro-6,7-dihydro-8-[4-(hydroxy)-1-piperidin-1-yl)-5-methyl-1-oxo-1H,5H-benzo[i,j]quinolizine-2-carboxylic acid arginine salt 0.75 H2O suitable for long term i.v. administration which is commonly undertaken for critically ill patients or patients in intensive care unit.

In series [2] the test system is E. coli 2015. The experiment in a line: Effect of pH on potency of fluoroquinolones (MIC at pH 5.5 and 7.0). The format is cell-based. The conditions noted are these: MIC pH 7 vs pH 5.5. An excerpt: (§1) The test method was in accordance with the standard NCCLS protocol employing test media adjusted at pH 5.5 and 7.0.
The test system of series [3] is P. rettgeri N 1764. The description is as above. Type of series: cell-based. The conditions noted are these: MIC pH 7 vs pH 5.5.
Source text: as §1

Series [4] relates to E. faecalis. Described as above. Type of series: cell-based. The conditions noted are these: MIC pH 7 vs pH 5.5.
Source text: as §1

In series [5] the test system is P. mirabilis 37. Described as above. The format is cell-based. The conditions noted are these: MIC pH 7 vs pH 5.5.
Source text: as §1

Series [6] relates to Ps. Aeruginosa. The series is described as above. The conditions noted are these: MIC pH 7 vs pH 5.5. Type of series: cell-based.
Source text: as §1

In series [7] the test system is Serratia marcescens 2702. Described as above. The conditions noted are these: MIC pH 7 vs pH 5.5. The format is cell-based.
Source text: as §1

Series [8] deals with Klebsiella 24037. Described as above. The conditions noted are these: MIC pH 7 vs pH 5.5. Type of series: cell-based.
Source text: as §1

Series [9] relates to Acinetobacter 3109. The series is described as above. The conditions noted are these: MIC pH 7 vs pH 5.5. The format is cell-based.
Source text: as §1

Series [10] deals with P. vulgaris 66. The series is described as above. Type of series: cell-based. The conditions noted are these: MIC pH 7 vs pH 5.5.
Source text: as §1

Series [11] concerns S. aureus 25923. The description is as above. Type of series: cell-based. The conditions noted are these: MIC pH 7 vs pH 5.5.
Source text: as §1

Series [12] concerns E. coli 25922. The description is as above. Type of series: cell-based. The conditions noted are these: MIC pH 7 vs pH 5.5.
Source text: as §1

In series [13] the test system is S. aureus 1199-B. The series is described as above. The format is cell-based. The conditions noted are these: MIC pH 7 vs pH 5.5.
Source text: as §1

Series [14] relates to Viridans group Streptococci. The experiment in a line: In-vitro antimicrobial activity test (MIC, NCCLS). The format is cell-based. An excerpt:
(§2) The test method was in accordance with the standard NCCLS protocol.

The subject of series [15] is Bacteroides fragilis. The experiment in a line: In-vitro antimicrobial activity test (MIC, NCCLS). Type of series: cell-based.
Source text: as §2

The test system of series [16] is Streptococcus pneumoniae ATCC 6303. Description: In-vitro antimicrobial activity test (MIC, NCCLS). Type of series: cell-based.
Source text: as §2

Series [17] has as its system Mycobacterium avium. Description: In-vitro antimicrobial activity test (MIC, NCCLS). Type of series: cell-based.
Source text: as §2

Series [18] relates to Mycobacterium tuberculosis ATCC 27294. The experiment in a line: In-vitro antimicrobial activity test (MIC, NCCLS). The format is cell-based.
Source text: as §2

Series [19] relates to Propioni bacterium acnes. The experiment in a line: In-vitro antimicrobial activity test (MIC, NCCLS). Type of series: cell-based.
Source text: as §2

The subject of series [20] is Escherichia coli ATCC 25922. The experiment in a line: In-vitro antimicrobial activity test (MIC, NCCLS). Type of series: cell-based.
Source text: as §2

Series [21] concerns Haemophilus influenzae. Description: In-vitro antimicrobial activity test (MIC, NCCLS). The format is cell-based.
Source text: as §2

Series [22] deals with Corynebacterium jeikeium. The experiment in a line: In-vitro antimicrobial activity test (MIC, NCCLS). Type of series: cell-based.
Source text: as §2

Series [23] relates to Serratia marcescens. Description: In-vitro antimicrobial activity test (MIC, NCCLS). The format is cell-based.
Source text: as §2

Series [24] deals with Mycobacterium intracellulare. Description: In-vitro antimicrobial activity test (MIC, NCCLS). Type of series: cell-based.
Source text: as §2

Series [25] concerns Pseudomonas aeruginosa. Description: In-vitro antimicrobial activity test (MIC, NCCLS). The format is cell-based.
Source text: as §2

Series [26] has as its system Chryseobacterium meningosepticum. The experiment in a line: In-vitro antimicrobial activity test (MIC, NCCLS). Type of series: cell-based.
Source text: as §2

The subject of series [27] is Enterococcus faecium. Description: In-vitro antimicrobial activity test (MIC, NCCLS). Type of series: cell-based.
Source text: as §2

For series [28], the system named is Enterococcus faecalis ATCC 29212. Description: In-vitro antimicrobial activity test (MIC, NCCLS). Type of series: cell-based.
Source text: as §2

The test system of series [29] is Streptococcus pyogenes. Description: In-vitro antimicrobial activity test (MIC, NCCLS). Type of series: cell-based.
Source text: as §2

Series [30] concerns Staphylococcus aureus ATCC 25923. The experiment in a line: In-vitro antimicrobial activity test (MIC, NCCLS). The format is cell-based.
Source text: as §2

In series [31] the test system is Mupirocin-resistant Staph STA-34. The experiment in a line: In-vitro antimicrobial activity test (MIC, NCCLS). The format is cell-based, Staphylococcus aureus.
Source text: as §2

The subject of series [32] is MRSA STA-4. Description: In-vitro antimicrobial activity test (MIC, NCCLS). Type of series: cell-based, Staphylococcus aureus.
Source text: as §2

For series [33], the system named is MRSE STE-22. The experiment in a line: In-vitro antimicrobial activity test (MIC, NCCLS). The format is cell-based, Staphylococcus epidermidis.
Source text: as §2

Series [34] can be described thus: Phototoxicity studies. The conditions noted are these: in vivo.

Converted amounts (≈) assume the structure as drawn.

With `C[C@H]1CCc2c(N3CCC(O)CC3)c(F)cc3c(=O)c(C(=O)O)cn1c23.N=C(N)NCCC[C@H](N)C(=O)O.O` [Example 7, S-(−)-9-fluoro-6,7-dihydro-8-(4-hydroxypiperidin-1-yl)-5-methyl-1-oxo-1H,5H-benzo[i,j]quinolizine-2-carboxylic acid, arginine salt 0.25 H2O], the phlebitis entry in series [1] is on record as “did not cause phlebitis”.
On to `O=C(O)c1cn(C2CC2)c2cc(N3CCNCC3)c(F)cc2c1=O` [Ciprofloxacin], for which the “% change in potency at pH 5.5, loss (−)/gain (+)” value (“% change … loss (−)/gain (+)” for short) is reported as −94% in series [2]; −94% in series [3]; −87.5% in series [4]; −96% in series [5]; −87% in [6]; −99% in series [7]. Also, the “% change … loss (−)/gain (+)” value was −97% in series [8]; −97% in [9]; −96% in series [10]; −75% in series [11]; −97.5% in [12]; −75% in series [13].
As to `C[C@H]1COc2c(N3CCN(C)CC3)c(F)cc3c(=O)c(C(=O)O)cn1c23` [Levofloxacin], the MIC turned out to be 1.56 µg/mL (≈ 4.32 µM) in series [14]; 6.25 µg/mL (≈ 17.3 µM) in series [15]; 0.8 µg/mL (≈ 2.21 µM) in [16]; 12.5 µg/mL (≈ 34.6 µM) in [17]; 0.4 µg/mL (≈ 1.11 µM) in series [18]; 1 µg/mL (≈ 2.77 µM) in series [19]. Moreover, the MIC in series [20] is 0.05 µg/mL (≈ 0.138 µM); in [21] it was 0.03 µg/mL (≈ 0.083 µM); in series [22] it was 0.4 µg/mL (≈ 1.11 µM); in [23], 0.1 µg/mL (≈ 0.277 µM); in series [24], 0.8 µg/mL (≈ 2.21 µM); in series [25] it was 3.12 µg/mL (≈ 8.63 µM). Besides, the MIC turned out to be 6.25 µg/mL (≈ 17.3 µM) in series [26]; 1.56 µg/mL (≈ 4.32 µM) in series [27]; 0.8 µg/mL (≈ 2.21 µM) in series [28]; 0.4 µg/mL (≈ 1.11 µM) in series [29]; 0.2 µg/mL (≈ 0.553 µM) in series [30]; 12.5 µg/mL (≈ 34.6 µM) in series [31]. Besides, the MIC in [32] and in series [33] was above 12.5 µg/mL throughout. Also, the “% change … loss (−)/gain (+)” value in series [2] is given as −87.5%; in series [3], −94%; in series [4] it was −75%; in series [5], −94%; in series [6], −50%; in series [7], −98%. The “% change … loss (−)/gain (+)” value is −94% in series [8]; −94% in series [9]; −94% in series [10]; −75% in series [11]; −96% in series [12]; −75% in series [13].
On to `C[C@@H]1CN(c2c(F)c(N)c3c(=O)c(C(=O)O)cn(C4CC4)c3c2F)C[C@H](C)N1` [Sparfloxacin], for which the “phototoxic dosage, times lower than S-(−)-Nadifloxacin” value in [34] stood at 25 times.
